Results from PubChem BioAssay AID192 (DTP/NCI, 2004).
Several values for one entry are separate records, joined by “and”; a condition that tells them apart may be missing. Identical values can stand only once. Inconclusive results and toxic doses are left out. Numbered stars: 1 amine (or outer) side, 2 acyl side, 3 side chain; on linkers, the order of the positions; unused ones are H or OH. Bridge positions count the residues as written; N and C are the ends. Square brackets hold non-standard residues; d marks the D form. Peptide text beside a SMILES is read from it. I, II: the chains in the order shown. Actinocin(9to1) = Cc1c2oc3c(C)ccc(C(=O)[*:1])c3nc-2c(C(=O)[*:2])c(N)c1=O; aThr = C[C@H](O)[C@H](N)C(=O)O; NMeV = CN[C@H](C(=O)O)C(C)C; Sar = CNCC(=O)O

Tested on: BDF1 mice, B16 melanoma ip, median survival T/C
Assay: NCI In Vivo Anticancer Drug Screen. Data for tumor model B16 Melanoma (intraperitoneal) in B6D2F1 (BDF1) mice
Settings: endpoint: median survival time, higher = longer survival
Procedure, shortened: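 The ratio T/C compares compound-treated mice with vehicle-treated controls, using survival or tumor size as the endpoint in a transplantable tumor model.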

[1] = dose: 50.0 mg/kg/injection, schedule: Q01DX009 (ip), vehicle: saline with Tween-80
[2] = dose: 12.5 mg/kg/injection, schedule: Q01DX009 (ip), vehicle: saline with Tween-80
[3] = dose: 25.0 mg/kg/injection, schedule: Q01DX009 (ip), vehicle: saline with Tween-80

Cc1c2oc3c(C)ccc(C(=O)N[C@@H]4C(=O)N[C@H](C(C)C)C(=O)N5CCC[C@H]5C(=O)N(C)CC(=O)N(C)[C@@H](C(C)C)C(=O)O[C@H]4C)c3nc-2c(C(=O)N[C@@H]2C(=O)N[C@H](C(C)C)C(=O)N3CCC[C@H]3C(=O)N(C)CC(=O)N(C)[C@@H](C(C)C)C(=O)O[C@H]2C)c(N)c1=O (I: [aThr][dV]P[Sar][NMeV] / II: [aThr][dV]P[Sar][NMeV]; ester I:1-I:C, II:1-II:C; linker I:N-II:N via Actinocin(9to1))
T/C (dose: 0.03 mg/kg/injection, schedule: Q01DX009 (ip), vehicle: water): 157 % of control | T/C (dose: 0.05 mg/kg/injection, schedule: Q01DX009 (ip), vehicle: water): 186 % of control | T/C (dose: 0.05 mg/kg/injection, schedule: Q04DX003 (ip), vehicle: saline): 123 % of control and 124 % of control | T/C (dose: 0.08 mg/kg/injection, schedule: Q01DX009 (ip), vehicle: saline): 169 % of control | T/C (dose: 0.13 mg/kg/injection, schedule: Q01DX009 (ip), vehicle: saline): 44 % of control | T/C (dose: 0.2 mg/kg/injection, schedule: Q04DX003 (ip), vehicle: saline): 164 % of control | T/C (dose: 0.22 mg/kg/injection, schedule: Q01DX009 (ip), vehicle: saline): 42 % of control | T/C (dose: 0.4 mg/kg/injection, schedule: Q04DX003 (ip), vehicle: saline): 65 % of control and 69 % of control | T/C (dose: 0.5 micrograms/kg/injection, schedule: Q01DX009 (ip), vehicle: saline): 119 % of control | T/C (dose: 2.0 micrograms/kg/injection, schedule: Q01DX009 (ip), vehicle: saline): 116 % of control | T/C (dose: 4.0 micrograms/kg/injection, schedule: Q01DX009 (ip), vehicle: saline): 150 % of control | T/C (dose: 6.25 micrograms/kg/injection, schedule: Q01DX009 (ip), vehicle: saline): 101 % of control | T/C (dose: 6.3 micrograms/kg/injection, schedule: Q01DX009 (ip), vehicle: saline): 96 % of control | T/C (dose: 6.5 micrograms/kg/injection, schedule: Q01DX009 (ip), vehicle: saline): 120 % of control | T/C (dose: 10.8 micrograms/kg/injection, schedule: Q01DX009 (ip), vehicle: saline): 112 % of control | T/C (dose: 12.5 micrograms/kg/injection, schedule: Q01DX009 (ip), vehicle: water): 120 % of control | T/C (dose: 16.0 micrograms/kg/injection, schedule: Q01DX009 (ip), vehicle: saline): 157 % of control | T/C (dose: 16.0 micrograms/kg/injection, schedule: Q01DX017 (ip), vehicle: saline): 185 % of control | T/C (dose: 21.6 micrograms/kg/injection, schedule: Q01DX009 (ip), vehicle: saline + alcohol): 123 % of control | T/C (dose: 25.0 micrograms/kg/injection, schedule: Q01DX009 (ip), vehicle: saline + alcohol): 120 % of control | T/C (dose: 32.0 micrograms/kg/injection, schedule: Q01DX005 (ip), vehicle: saline): 120 % of control | T/C (dose: 32.0 micrograms/kg/injection, schedule: Q01DX009 (ip), vehicle: saline): 155 % of control | T/C (dose: 32.0 micrograms/kg/injection, schedule: Q01DX017 (ip), vehicle: saline): 200 % of control | T/C (dose: 36.0 micrograms/kg/injection, schedule: Q01DX009 (ip), vehicle: saline + alcohol): 152 % of control | T/C (dose: 37.5 micrograms/kg/injection, schedule: Q01DX009 (ip), vehicle: saline + alcohol): 153 % of control | T/C (dose: 37.5 micrograms/kg/injection, schedule: Q01DX009 (ip), vehicle: saline): 159 % of control | T/C (dose: 37.5 micrograms/kg/injection, schedule: Q04DX003 (ip), vehicle: saline): 118 % of control | T/C (dose: 38.9 micrograms/kg/injection, schedule: Q04DX003 (ip), vehicle: saline + alcohol): 123 % of control | T/C (dose: 50.0 micrograms/kg/injection, schedule: Q01DX009 (ip), vehicle: saline + alcohol): 158 % of control | T/C (dose: 50.0 micrograms/kg/injection, schedule: Q01DX009 (ip), vehicle: water): 152 % of control and 166 % of control | T/C (dose: 60.0 micrograms/kg/injection, schedule: Q01DX009 (ip), vehicle: saline + alcohol): 152 % of control and 161 % of control | T/C (dose: 64.0 micrograms/kg/injection, schedule: Q01DX005 (ip), vehicle: saline): 152 % of control | T/C (dose: 64.8 micrograms/kg/injection, schedule: Q04DX003 (ip), vehicle: saline + alcohol): 154 % of control | T/C (dose: 75.0 micrograms/kg/injection, schedule: Q01DX009 (ip), vehicle: saline): 186 % of control | T/C (dose: 75.0 micrograms/kg/injection, schedule: Q04DX003 (ip), vehicle: water): 123 % of control | T/C (dose: 83.0 micrograms/kg/injection, schedule: Q01DX009 (ip), vehicle: saline): 175 % of control | T/C (dose: 100.0 micrograms/kg/injection, schedule: Q01DX009 (ip), vehicle: saline + alcohol): 169 % of control | T/C (dose: 100.0 micrograms/kg/injection, schedule: Q01DX009 (ip), vehicle: water): 175 % of control | T/C (dose: 108.0 micrograms/kg/injection, schedule: Q04DX003 (ip), vehicle: saline + alcohol): 150 % of control and 159 % of control and 160 % of control | T/C (dose: 128.0 micrograms/kg/injection, schedule: Q01DX005 (ip), vehicle: saline): 165 % of control | T/C (dose: 128.0 micrograms/kg/injection, schedule: Q04DX003 (ip), vehicle: saline): 150 % of control | T/C (dose: 180.0 micrograms/kg/injection, schedule: Q04DX003 (ip), vehicle: saline + alcohol): 164 % of control and 172 % of control and 176 % of control | T/C (dose: 225.0 micrograms/kg/injection, schedule: Q04DX003 (ip), vehicle: saline + alcohol): 91 % of control | T/C (dose: 225.0 micrograms/kg/injection, schedule: Q04DX003 (ip), vehicle: saline): 159 % of control | T/C (dose: 256.0 micrograms/kg/injection, schedule: Q04DX003 (ip), vehicle: saline): 165 % of control | T/C (dose: 300.0 micrograms/kg/injection, schedule: Q04DX003 (ip), vehicle: saline): 168 % of control and 169 % of control | T/C (dose: 300.0 micrograms/kg/injection, schedule: Q04DX003 (ip), vehicle: water): 106 % of control | T/C (dose: 500.0 micrograms/kg/injection, schedule: Q04DX003 (ip), vehicle: saline + alcohol): 101 % of control | T/C (dose: 512.0 micrograms/kg/injection, schedule: Q01DX001 (ip), vehicle: saline): 92 % of control | T/C (dose: 600.0 micrograms/kg/injection, schedule: Q04DX003 (ip), vehicle: saline): 231 % of control

C[C@]12CC[C@H]3[C@@H](CCC4=CC(=O)CC[C@@]43C)[C@@H]1CC[C@@H]2OC(=O)Cc1ccc(N(CCCl)CCCl)cc1
T/C (dose: 64.0 mg/kg/injection, schedule: Q02DX009 (ip), vehicle: Klucel (hydroxypropylcellulose) (HPC)): 100 % of control and 111 % of control | T/C (dose: 128.0 mg/kg/injection, schedule: Q02DX009 (ip), vehicle: Klucel (hydroxypropylcellulose) (HPC)): 95 % of control and 115 % of control | T/C (dose: 256.0 mg/kg/injection, schedule: Q02DX009 (ip), vehicle: Klucel (hydroxypropylcellulose) (HPC)): 122 % of control

CCCCCCCCC(=O)CCCCC
T/C (dose: 75.0 mg/kg/injection, schedule: Q01DX009 (ip), vehicle: Klucel (hydroxypropylcellulose) (HPC)): 104 % of control | T/C (dose: 150.0 mg/kg/injection, schedule: Q01DX009 (ip), vehicle: Klucel (hydroxypropylcellulose) (HPC)): 103 % of control | T/C (dose: 300.0 mg/kg/injection, schedule: Q01DX009 (ip), vehicle: Klucel (hydroxypropylcellulose) (HPC)): 103 % of control

CC(C)(O)C(I)C[n+]1ccccc1 (configuration not stated)
T/C (dose: 100.0 mg/kg/injection, schedule: Q04DX003 (ip), vehicle: saline): 109 % of control | T/C (dose: 200.0 mg/kg/injection, schedule: Q04DX003 (ip), vehicle: saline): 101 % of control | T/C (dose: 400.0 mg/kg/injection, schedule: Q04DX003 (ip), vehicle: saline): 114 % of control

COc1cc(C2=NCCc3cc4c(cc32)OCO4)cc(OC)c1OC
T/C (dose: 12.5 mg/kg/injection, schedule: Q01DX009 (ip), vehicle: saline): 112 % of control | T/C (dose: 25.0 mg/kg/injection, schedule: Q01DX009 (ip), vehicle: saline): 118 % of control | T/C (dose: 50.0 mg/kg/injection, schedule: Q01DX009 (ip), vehicle: saline): 104 % of control | T/C (dose: 100.0 mg/kg/injection, schedule: Q01DX009 (ip), vehicle: saline): 101 % of control

CCC1CN2CCC3(C(=O)Nc4ccccc43)C2CC1/C(=C/OC)C(=O)OC (configuration not stated)
T/C [1]: 95 % of control

Cc1cc2nc(Cc3ccccc3)[nH]c2cc1C
T/C [2]: 102 % of control | T/C [3]: 105 % of control | T/C [1]: 94 % of control

CCNC(Cc1ccccc1)c1ccc(OC)cc1 (configuration not stated)
T/C (dose: 12.5 mg/kg/injection, schedule: Q01DX009 (ip), vehicle: Klucel (hydroxypropylcellulose) (HPC)): 106 % of control | T/C (dose: 25.0 mg/kg/injection, schedule: Q01DX009 (ip), vehicle: Klucel (hydroxypropylcellulose) (HPC)): 100 % of control | T/C (dose: 50.0 mg/kg/injection, schedule: Q01DX009 (ip), vehicle: Klucel (hydroxypropylcellulose) (HPC)): 113 % of control

C=CCOCC(O)CN(CCC)CCC (configuration not stated)
T/C [2]: 114 % of control | T/C [3]: 112 % of control | T/C [1]: 114 % of control

CCOC(=N)c1cn(C2OC(CO)C(O)C2O)c2ncnc(N)c12 (configuration not stated)
T/C (dose: 0.25 mg/kg/injection, schedule: Q01DX009 (ip), vehicle: saline): 100 % of control | T/C (dose: 0.5 mg/kg/injection, schedule: Q01DX009 (ip), vehicle: saline): 105 % of control

COc1cc(C(=O)O)c(Br)cc1C
T/C (dose: 100.0 mg/kg/injection, schedule: Q04DX003 (ip), vehicle: Klucel (hydroxypropylcellulose) (HPC)): 105 % of control | T/C (dose: 200.0 mg/kg/injection, schedule: Q04DX003 (ip), vehicle: Klucel (hydroxypropylcellulose) (HPC)): 97 % of control
